Tests used:
[1] = system: AMP-dependent protein kinase (AMPK); conditions: U.S. Pat. No. 9,707,222; cited from earlier work
blood glucose = conditions: U.S. Pat. No. 9,707,222; cited from earlier work
[2] = system: excisional full-thickness square-shaped skin wound; assay: Effect of salsolinol ointment on excisional full-thickness skin wound healing in guinea pigs; format: in vivo; conditions: for recover rate of wound vs vehicle control: another experiment; for wound recovery (wound images) vs vehicle controls: FIG. 3
Procedure: Salsolinol ointments at 0.01 mg/g, 0.03 mg/g and 0.1 mg/g were prepared respectively by dissolving 0.5 mg, 1.5 mg, and 5 mg of salsoinol in 2.5 mL of glycerol (Sigma Inc., MO, USA) plus 1.0 mL of Creagel emulsifier (First Chemical, TPE, Taiwan) and 45.5 mL of distilled water. Vehicle was composed of glycerol (2.5 mL), Creagel emulsifier (1.0 mL), and distilled water (45.5 mL).
Guinea pigs were purchased and were acclimatized at a room temperature, and had free access to water. All experimental procedures were approved by and performed in compliance with the guidelines of the Institutional Animal Care and Use Committee (IACUC). All surgeries were conducted while animals were under continuous anesthesia with 4% isoflurane.
The dorsal skin was shaved and then disinfected with 10% povidone-iodine before an excisional full-thickness square-shaped skin wound (1.0×1.0 cm) was induced using a sterile wound maker. Animals were then housed alone in its cage to avoid any further wound damage.
Animals were randomly divided into six groups (n=5 or 6, each group) as follows: • (1) animals treated with salsolinol at a concentration of 0.01 mg/g (C0.01, n=6); • (2) animal treated with the vehicle (V0.01) as compared with the group C0.01; • (3) animal treated with salsolinol at a concentration of 0.03 mg/g (C0.03, n=5); • (4) animal treated with the vehicle (V0.03) as compared with the group C0.03.
The groups were administered at the same amount of the salsolinol at 0.01 mg/g, and 0.03 mg/g or the vechile at the same amount once daily and the wounds were photopictured on Day 1, Day 3, Day 5, Day 7, Day 10, and Day 14. The sizes of the wounds were analyzed using Visual Basic 6.0. The rate of wound recovery at each experimental time point is calculated by the size of the wound as compared with that of the wound at D1, wherein the rate of wound recovery at Day 1 is 1.0.
In another experiment, the wounds of the guinea pigs were treated with salsolinol at a concentration of 0.001 mg/g, 0.01 mg/g or the vehicle at the same amount once daily and the wounds were photopictured on Day 1, Day 3, Day 5, Day 7, Day 10, and Day 14. The sizes of the wounds were analyzed using Visual Basic 6.0. The recovery rate of the wound at each experimental time point was calculated by the size of the wound as compared with that of the wound at D1, wherein the recover rate of wound at Day 1 is 0.0%.

In the case of COc1ccc(C[C@H]2c3cc(O)c(OC)cc3CCN2C)cc1O [reticuline, reference compound], the “activation of AMPK” value [1] is given as “can activate” and the “efficacy in reducing blood glucose” value (blood glucose) is given as “has an efficacy in reducing blood glucose”.
For CC1NCCc2cc(O)c(O)cc21 (stereo not drawn) [salsolinol], the “activation of AMPK” value [1] is given as “can activate”, the “efficacy in reducing blood glucose” value (blood glucose) is given as “has an efficacy in reducing blood glucose” and the “recover rate of wound vs vehicle control” value ([2]; salsolinol 0.001 mg/g (C0.001) once daily, FIG. 4) is given as “better than that of the control group”. The “recover rate of wound vs vehicle control” value ([2]; salsolinol 0.01 mg/g (C0.01) once daily, after Day 3, p<0.05, FIG. 5) was “significantly better”, the “wound healing (rate of wound recovery) vs vehicle control” value ([2]; salsolinol 0.01 mg/g (C0.01) once daily vs V0.01, Day 3, Day 5 and Day 7, p<0.01, FIG. 1) was “significantly better” and the “wound recovery (wound images) vs vehicle controls” value ([2]; salsolinol 0.01 mg/g) was “better than the controls”. For the same molecule, the “wound healing (rate of wound recovery) vs vehicle control” value ([2]; salsolinol 0.03 mg/g (C0.03) once daily vs V0.03, Day 3, p<0.05, FIG. 2) was “significantly better”, the “wound recovery (wound images) vs vehicle controls” value ([2]; salsolinol 0.03 mg/g) was “better than the controls” and the “wound recovery (wound images) vs vehicle controls” value ([2]; salsolinol 0.1 mg/g) was “better than the controls”. For the same molecule, the “wound recovery vs control groups (summary)” value ([2]; salsolinol at 0.001 mg/g to 0.03 mg/g, preferably 0.01 mg/g) was “enhanced the wound recovery”.

From patent publication US20190224187A1, “NEW USE OF ISOQUINOLINE DERIVATIVES FOR WOUND HEALING” (ZIH YUAN TANG Biotechnology Co., Ltd, priority 2018, published 2019)
